Measurements from PubChem BioAssay (NCI).
Values joined by “and” are separate entries in the source; they are usually repeats but may differ in a detail not shown here. Identical values can stand only once.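 Results reflect a 48-hour exposure of cells in 96-well plates to compound at five concentrations. At the GI50, growth is halved. TGI: concentration producing complete growth inhibition.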

Legend:
Test in all cases: DTP human tumour cell line panel, 48 h
DU-145 prostate = tested on: DU-145 prostate
MOLT-4 leukemia = tested on: MOLT-4 leukemia
EKVX NSCLC = tested on: EKVX NSCLC
HS 578T breast = tested on: HS 578T breast
HCT-116 colon = tested on: HCT-116 colon
NCI/ADR-RES ovarian = tested on: NCI/ADR-RES ovarian
HCC-2998 colon = tested on: HCC-2998 colon
HL-60(TB) leukemia = tested on: HL-60(TB) leukemia
TK-10 renal = tested on: TK-10 renal
MCF7 breast = tested on: MCF7 breast
MALME-3M melanoma = tested on: MALME-3M melanoma

Compound | TGI (DU-145 prostate) | TGI (MOLT-4 leukemia) | TGI (EKVX NSCLC) | TGI (HS 578T breast) | TGI (HCT-116 colon) | TGI (NCI/ADR-RES ovarian) | TGI (HCC-2998 colon) | TGI (HL-60(TB) leukemia) | TGI (TK-10 renal) | TGI (MCF7 breast) | TGI (MALME-3M melanoma) | GI50 (MOLT-4 leukemia) | GI50 (MALME-3M melanoma) | GI50 (EKVX NSCLC) | GI50 (HS 578T breast) | GI50 (HCT-116 colon) | GI50 (NCI/ADR-RES ovarian) | GI50 (HL-60(TB) leukemia) | GI50 (TK-10 renal) | GI50 (MCF7 breast)
CC[C@@H]1CC[C@@H]2[C@H](CC[C@]3(C)[C@@H](O)CC[C@@H]23)[C@H]1C(=O)O | > 100 µM | > 100 µM | > 100 µM | > 100 µM | > 100 µM | > 100 µM | > 100 µM | > 100 µM | > 100 µM | > 100 µM | > 100 µM | – | – | – | – | – | – | – | – | –
Cc1cn(C2CC(N)C(CN)O2)c(=O)[nH]c1=O (stereo not drawn) | > 100 µM | > 100 µM | > 100 µM | > 100 µM | > 100 µM | > 100 µM | > 100 µM | > 100 µM | > 100 µM | > 100 µM | > 100 µM | – | – | – | – | – | – | – | – | –
COc1ccc(-c2c(C#N)c(S)n(C3OC(COC(C)=O)C(OC(C)=O)C(OC(C)=O)C3OC(C)=O)c(=O)c2C#N)cc1 (stereo not drawn) | > 100 µM | > 100 µM | > 100 µM | 93.7 µM and 95.5 µM | > 100 µM | > 100 µM | 98.9 µM and 64.6 µM | > 100 µM and 45.6 µM | > 100 µM and 92.2 µM | > 100 µM | > 100 µM | > 100 µM and 39.2 µM | 77.1 µM and 37.7 µM | – | – | – | – | – | – | –
CC1(C)CC2(C)CC1CC2O (stereo not drawn) | > 100 µM | > 100 µM | > 100 µM | > 100 µM | > 100 µM | > 100 µM | > 100 µM | > 100 µM | > 100 µM | > 100 µM | > 100 µM | – | – | – | – | – | – | – | – | –
CCOC(=O)c1cc(C2(O)CCN(Cc3ccccc3)C2=O)c(-c2cc(C)no2)[nH]1 (stereo not drawn) | > 100 µM | 41.9 µM | > 100 µM | > 100 µM | > 100 µM | > 100 µM | > 100 µM | 34.7 µM | > 100 µM | > 100 µM | > 100 µM | – | – | – | – | – | – | – | – | –
Clc1nc(Cl)nc(NC23CC4CC(CC(C4)C2)C3)n1 | 31.3 µM | 51.2 µM | 37.4 µM | 28.9 µM | 31.3 µM | 44.5 µM | 41.2 µM | 16.5 µM | 32.6 µM | > 64.3 µM | 30.5 µM | – | – | – | – | – | – | – | – | –
N#Cc1c(N)[nH]c(=S)c(C#N)c1-c1cccc(Cl)c1 | > 100 µM | 57.8 µM | 97.9 µM | 94.1 µM | 60.6 µM | > 100 µM | 35.6 µM | 65.2 µM | > 100 µM | > 100 µM | > 100 µM | – | – | – | – | – | – | – | – | –
Cc1ccc(N=Nc2c3c(c(O)c4ccccc24)CCC(C)(C)O3)cc1 | 26 µM | > 100 µM | 75.3 µM | 84.4 µM | 49.2 µM | > 100 µM | 34.3 µM | 49.7 µM | 88.5 µM | 27.2 µM | 21.6 µM | – | – | – | – | – | – | – | – | –
O=C(/C(=C(/Br)I)c1ccccc1)c1ccccc1 | 30.9 µM | 46.2 µM | 89.1 µM | > 100 µM | 31.7 µM | 37.4 µM | 30.1 µM | > 100 µM | 69.1 µM | 94.4 µM | 33.2 µM | – | – | – | – | – | – | – | – | –
CC(C)(C)OC(=O)NCCCCC(NC(=O)OCc1ccccc1)C(N)=O (stereo not drawn) | > 100 µM | > 100 µM | > 100 µM | > 100 µM | > 100 µM | > 100 µM | > 100 µM | > 100 µM | > 100 µM | > 100 µM | > 100 µM | – | – | – | – | – | – | – | – | –
Cc1c(S(=O)(=O)c2ccccc2)c(N)n(Cc2ccccc2)c1C | > 100 µM | > 100 µM | > 100 µM | > 100 µM | > 100 µM | > 100 µM | > 100 µM | > 100 µM | > 100 µM | > 100 µM | > 100 µM | – | – | – | – | – | – | – | – | –
O=C1CC(c2ccco2)C2(C(=O)NC(=O)NC2=O)C(c2ccco2)C1 (stereo not drawn) | > 75 µM | > 75 µM | > 75 µM | > 75 µM | > 75 µM | > 75 µM | > 75 µM | > 75 µM | > 75 µM | > 75 µM | > 75 µM | – | – | – | – | – | – | – | – | –
COc1ccc(N2C(=O)C3c4[nH]c5ccc([N+](=O)[O-])cc5c4C4CCC(C(C)(C)C)CC4C3C2=O)cc1 (stereo not drawn) | > 100 µM | > 100 µM | > 100 µM | > 100 µM | 23.9 µM | > 100 µM | > 100 µM | 33.5 µM | > 100 µM | > 100 µM | > 100 µM | – | – | – | – | – | – | – | – | –
CCOC(=O)c1sc2nc(SC)nc3c2c1N=CN3c1ccc(Br)cc1 | > 100 µM | > 100 µM | > 100 µM | > 100 µM | > 100 µM | > 100 µM | > 100 µM | > 100 µM | > 100 µM | > 100 µM | > 100 µM | – | – | – | – | – | – | – | – | –
COC(=O)C1(Cc2ccccc2)Cc2cc3c(cc2C1=O)CCC3 (stereo not drawn) | > 100 µM | 43.1 µM | 86.1 µM | > 100 µM | > 100 µM | > 100 µM | 9.64 µM | 36.7 µM | > 100 µM | 42.9 µM | 56.6 µM | – | – | – | – | – | – | – | – | –
O=c1[nH]c2nc3ccccc3c(=O)n2/c1=C/c1ccc(O)cc1 | > 100 µM | > 100 µM | > 100 µM | 69.7 µM | > 100 µM | > 100 µM | 69.9 µM | > 100 µM | > 100 µM | > 100 µM | > 100 µM | – | – | – | – | – | – | – | – | –
Cc1ccc2c(c1C)CC1(Cc3c(ccc4c3CCC4)C1=O)C2=O (stereo not drawn) | > 100 µM | > 100 µM | > 100 µM | > 100 µM | > 100 µM | > 100 µM | > 100 µM | > 100 µM | > 100 µM | > 100 µM | > 100 µM | – | – | – | – | – | – | – | – | –
COc1ccc(Nc2[nH]c(C(C)=O)c(N)c2C(=S)Nc2ccccc2)cc1 | > 100 µM | > 100 µM | > 100 µM | > 100 µM | > 100 µM | > 100 µM | > 100 µM | > 100 µM | > 100 µM | 68.6 µM | > 100 µM | – | – | – | – | – | – | – | – | –
C=CC(=O)c1ccc2c(c1)OCCOCCOCCOCCOCCO2 | > 100 µM | > 100 µM | 57.9 µM | > 100 µM | > 56.2 µM | 54 µM | > 100 µM | > 100 µM | 31.1 µM | 32.4 µM | 33.6 µM | – | – | – | – | – | – | – | – | –
Cc1ccc(-c2cc(N)n(-c3nc4c([nH]3)c(=O)n(C)c(=O)n4C)n2)cc1 | 20.4 µM | > 100 µM | 21.6 µM | > 100 µM | 15.9 µM | 7.81 µM | > 100 µM | > 100 µM | 26.4 µM | > 100 µM | 16 µM | – | – | – | – | – | – | – | – | –
c1cc2nnc1SCCSCCSc1ccc(nn1)SCCSCCS2 | > 100 µM | > 100 µM | > 100 µM | > 100 µM | > 100 µM | > 100 µM | > 100 µM | > 100 µM | > 100 µM | > 100 µM | > 100 µM | – | – | – | – | – | – | – | – | –
CCOC(=O)c1cc2c([N+](=O)[O-])c(NC(C)=O)ccc2s1 | > 100 µM | > 100 µM | 98 µM | > 100 µM | > 100 µM | > 100 µM | > 100 µM | > 100 µM | > 100 µM | > 100 µM | > 100 µM | – | – | – | – | – | – | – | – | –
Nc1nc2ncc(SCc3ccc(C(=O)NC(CCC(=O)O)C(=O)O)cc3)cc2c(=O)[nH]1 (stereo not drawn) | > 100 µM | > 100 µM | > 100 µM | > 100 µM | > 100 µM | > 100 µM | > 100 µM | > 100 µM | > 100 µM | > 100 µM | > 100 µM | – | – | – | – | – | – | – | – | –
CCN(CC)CCn1c2cc3c(cc2c(=O)c2cccnc21)OCCO3 | > 10 µM | > 10 µM | > 10 µM | > 10 µM | > 10 µM | > 10 µM | > 10 µM | > 10 µM | > 10 µM | > 10 µM | > 10 µM | – | – | – | – | – | – | – | – | –
CCCCCCCCCC[C@@H](O)[C@H]1CC[C@H]([C@H]2CC[C@H]([C@H](O)CCCCCCCCCC[C@@H]3CC(CC(C)=O)C(=O)O3)O2)O1 (stereo partly drawn) | > 50 µM | > 50 µM | > 50 µM | > 50 µM | > 37.2 µM | – | > 50 µM | 9.6 µM and > 50 µM | > 50 µM | > 50 µM | > 50 µM | – | – | 1.57 µM | 8.36 µM | 1.32 µM | 0.377 µM | 2.25 µM | 2.33 µM | 1.85 µM
